Measurements from ChEMBL document CHEMBL1147513, “Sensitivity of neuronal nicotinic acetylcholine receptors to the opiate antagonists naltrexone and naloxone: receptor blockade and up-regulation” (Bioorg Med Chem Lett, 2004).

Key:
HEK293 [1] = assay: Decay-time constant of ACh ([…])-evoked currents in the presence of 3 uM naltrexone in HEK293 cells; type: functional, Homo sapiens
HEK293 [2] = assay: Decay-time constant of ACh ([…])-evoked currents in the presence of 100 uM naltrexone in HEK293 cells; type: functional, Homo sapiens
HEK293 [3] = assay: Decay-time constant of ACh (100 uM) -evoked currents in the absence of naltrexone in HEK293 cells; type: functional, Homo sapiens
HEK293 [4] = assay: Decay-time constant of ACh ([…])-evoked currents in the presence of 300 uM naltrexone in HEK293 cells; type: functional, Homo sapiens
HEK293 [5] = assay: Decay-time constant of ACh ([…])-evoked currents in the presence of 0.3 uM naltrexone in HEK293 cells; type: functional, Homo sapiens
HEK293 [6] = assay: Decay-time constant of ACh ([…])-evoked currents in the presence of 30 uM naltrexone in HEK293 cells; type: functional, Homo sapiens
HEK293 [7] = assay: Decay-time constant of ACh ([…])-evoked currents in the presence of 10 uM naltrexone in HEK293 cells; type: functional, Homo sapiens
HEK293 [8] = assay: Decay-time constant of ACh ([…])-evoked currents in the presence of 1 uM naltrexone in HEK293 cells; type: functional, Homo sapiens
HEK293 [9] = assay: Decay-time constant of ACh ([…])-evoked currents in the presence of 0.1 uM naltrexone in HEK293 cells; type: functional, Homo sapiens
[10] = molecular target: T1, Neuronal acetylcholine receptor subunit alpha-4 (Rattus norvegicus, UniProt P09483); assay: Blockage of Nicotinic acetylcholine receptor alpha4-beta2 noncompetitively in CA1 stratum radiatum interneurons
T1 sequence (P09483 whole entry): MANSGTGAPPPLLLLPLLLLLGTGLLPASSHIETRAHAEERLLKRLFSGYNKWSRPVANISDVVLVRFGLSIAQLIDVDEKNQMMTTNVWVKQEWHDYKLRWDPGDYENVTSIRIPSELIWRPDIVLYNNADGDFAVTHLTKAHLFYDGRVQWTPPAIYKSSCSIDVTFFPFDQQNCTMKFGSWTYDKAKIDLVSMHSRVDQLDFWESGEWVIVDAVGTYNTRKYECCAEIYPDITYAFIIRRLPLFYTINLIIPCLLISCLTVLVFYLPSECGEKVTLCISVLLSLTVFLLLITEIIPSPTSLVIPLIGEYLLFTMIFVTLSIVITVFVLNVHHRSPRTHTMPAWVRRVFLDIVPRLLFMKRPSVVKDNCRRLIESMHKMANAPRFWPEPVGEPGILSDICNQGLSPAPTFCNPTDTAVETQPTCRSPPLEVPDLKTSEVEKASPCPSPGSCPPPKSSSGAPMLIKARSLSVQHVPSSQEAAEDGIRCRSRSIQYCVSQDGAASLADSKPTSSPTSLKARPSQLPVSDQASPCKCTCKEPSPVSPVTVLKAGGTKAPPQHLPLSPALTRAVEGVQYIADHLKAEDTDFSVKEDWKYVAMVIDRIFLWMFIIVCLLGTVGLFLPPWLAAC

[11] = Increase in the charge carried by ACh- induced currents in […] organotypic hippocampal cultures by naltrexone (0.3 uM); type: functional, Hippocampus
[12] = molecular target: T2, Neuronal acetylcholine receptor subunit alpha-7 (Homo sapiens, UniProt P36544); assay: Blockage of Nicotinic acetylcholine receptor alpha-7 noncompetitively in hippocampal primary cultures; type: tissue-based, Hippocampus
T2 sequence (P36544 whole entry): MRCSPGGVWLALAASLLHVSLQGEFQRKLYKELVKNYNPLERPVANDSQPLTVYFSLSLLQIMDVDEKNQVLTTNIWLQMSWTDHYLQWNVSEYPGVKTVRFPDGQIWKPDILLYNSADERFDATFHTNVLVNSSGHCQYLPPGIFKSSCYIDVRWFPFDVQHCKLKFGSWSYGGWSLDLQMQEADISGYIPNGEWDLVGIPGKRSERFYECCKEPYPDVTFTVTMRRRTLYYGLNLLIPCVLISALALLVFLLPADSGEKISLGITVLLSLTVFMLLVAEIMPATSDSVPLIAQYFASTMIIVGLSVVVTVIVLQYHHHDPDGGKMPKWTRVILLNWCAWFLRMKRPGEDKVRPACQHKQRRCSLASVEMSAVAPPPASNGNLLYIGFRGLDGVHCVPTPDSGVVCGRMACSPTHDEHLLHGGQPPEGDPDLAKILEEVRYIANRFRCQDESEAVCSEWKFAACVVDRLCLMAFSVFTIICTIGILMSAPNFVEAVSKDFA

[13] = molecular target: T2, Neuronal acetylcholine receptor subunit alpha-7; assay: Blockage of Nicotinic acetylcholine receptor alpha-7 noncompetitively in cultured hippocampal neurons; type: tissue-based, Hippocampus
[14] = Increase in the charge carried by choline- induced currents in […] organotypic hippocampal cultures by naltrexone (0.3 uM); type: functional, Hippocampus
[15] = molecular target: T1, Neuronal acetylcholine receptor subunit alpha-4; assay: Blockage of Nicotinic acetylcholine receptor alpha4-beta2 noncompetitively in cultured hippocampal neurons; type: tissue-based, Hippocampus
[16] = Increase in the charge carried by choline- induced currents in CA1 pyramidal neurons of […] cultures by naltrexone (0.3 uM); type: functional, Pyramidal neuron
[17] = Increase in the charge carried by ACh- induced currents in CA1 pyramidal neurons of […] cultures by naltrexone (0.3 uM); type: functional, Pyramidal neuron
[18] = molecular target: T1, Neuronal acetylcholine receptor subunit alpha-4; assay: Blockage of Nicotinic acetylcholine receptor alpha4-beta2 noncompetitively in acute hippocampal slices; type: tissue-based, Hippocampus

| SMILES | Decay-time constant (HEK293 [1]) | Decay-time constant (HEK293 [2]) | Decay-time constant (HEK293 [3]) | Decay-time constant (HEK293 [4]) | Decay-time constant (HEK293 [5]) | Decay-time constant (HEK293 [6]) | Decay-time constant (HEK293 [7]) | Decay-time constant (HEK293 [8]) | Decay-time constant (HEK293 [9]) | IC50 [10] | Increase [11] | IC50 [12] | IC50 [13] | Increase [14] | IC50 [15] | Increase [16] | Increase [17] | IC50 [18] |
| --- | --- | --- | --- | --- | --- | --- | --- | --- | --- | --- | --- | --- | --- | --- | --- | --- | --- | --- |
| CC(=O)OCC[N+](C)(C)C [ACETYLCHOLINE] | 508.74 ms | 257.74 ms | 547.88 ms | 202.53 ms | 495.98 ms | 422.02 ms | 467.84 ms | 543.11 ms | 509.96 ms | – | – | – | – | – | – | – | – | – |
| O=C1CC[C@@]2(O)[C@H]3Cc4ccc(O)c5c4[C@@]2(CCN3CC2CC2)[C@H]1O5 [NALTREXONE] | – | – | – | – | – | – | – | – | – | 141 µM | 214% | 25 µM | 30 µM | 283% | 139 µM | 210% | 169% | 31 µM |
